These compounds were tested against T1, PIKfyve (Homo sapiens, UniProt Q9Y2I7) (assay: Degradation of PIKfyve proteins in VCaP tumor cells (24 h, Western blot)). Conditions: 37° C., compared with DMSO control, WB, read-out: DC50 (concentration that achieves 50% degradation activity).
T1 construct: endogenous in cells; host or cells: VCaP
Type: cell-based
Method: Method: 200 μL of cells at a density of 5×10^6 cells/ml were inoculated into a 6-well plate, and then different concentrations of drugs were added. The cells were treated at 37° C. for 24 h. The […] was collected and washed with PBS twice. Then, 100-200 μL of 1×SDS lysate was added, and the cell lysate was collected into a centrifuge tube. The cells were disrupted ultrasonically for 10-20 sec, and boiled for 10 min. Protein samples were subjected to SDS-PAGE electrophoresis at a voltage of 90 V, transferred to PVDF membranes at 110 V, blocked with 5% BSA for 4 h, incubated with primary antibodies (PIKfyve, GAPDH) at 4° C. overnight, and incubated with secondary antibodies (anti-Rabbit IgG or anti-Mouse IgG) at room temperature. The membranes were washed with TBST buffer, developed with an ECL developing solution, and then imaged to obtain protein band signals, with single-concentration WB results as shown in FIG. 1. Compared with the DMSO control group, the concentration that achieves 50% degradation activity is defined as DC50.

T1 sequence (Q9Y2I7 whole entry): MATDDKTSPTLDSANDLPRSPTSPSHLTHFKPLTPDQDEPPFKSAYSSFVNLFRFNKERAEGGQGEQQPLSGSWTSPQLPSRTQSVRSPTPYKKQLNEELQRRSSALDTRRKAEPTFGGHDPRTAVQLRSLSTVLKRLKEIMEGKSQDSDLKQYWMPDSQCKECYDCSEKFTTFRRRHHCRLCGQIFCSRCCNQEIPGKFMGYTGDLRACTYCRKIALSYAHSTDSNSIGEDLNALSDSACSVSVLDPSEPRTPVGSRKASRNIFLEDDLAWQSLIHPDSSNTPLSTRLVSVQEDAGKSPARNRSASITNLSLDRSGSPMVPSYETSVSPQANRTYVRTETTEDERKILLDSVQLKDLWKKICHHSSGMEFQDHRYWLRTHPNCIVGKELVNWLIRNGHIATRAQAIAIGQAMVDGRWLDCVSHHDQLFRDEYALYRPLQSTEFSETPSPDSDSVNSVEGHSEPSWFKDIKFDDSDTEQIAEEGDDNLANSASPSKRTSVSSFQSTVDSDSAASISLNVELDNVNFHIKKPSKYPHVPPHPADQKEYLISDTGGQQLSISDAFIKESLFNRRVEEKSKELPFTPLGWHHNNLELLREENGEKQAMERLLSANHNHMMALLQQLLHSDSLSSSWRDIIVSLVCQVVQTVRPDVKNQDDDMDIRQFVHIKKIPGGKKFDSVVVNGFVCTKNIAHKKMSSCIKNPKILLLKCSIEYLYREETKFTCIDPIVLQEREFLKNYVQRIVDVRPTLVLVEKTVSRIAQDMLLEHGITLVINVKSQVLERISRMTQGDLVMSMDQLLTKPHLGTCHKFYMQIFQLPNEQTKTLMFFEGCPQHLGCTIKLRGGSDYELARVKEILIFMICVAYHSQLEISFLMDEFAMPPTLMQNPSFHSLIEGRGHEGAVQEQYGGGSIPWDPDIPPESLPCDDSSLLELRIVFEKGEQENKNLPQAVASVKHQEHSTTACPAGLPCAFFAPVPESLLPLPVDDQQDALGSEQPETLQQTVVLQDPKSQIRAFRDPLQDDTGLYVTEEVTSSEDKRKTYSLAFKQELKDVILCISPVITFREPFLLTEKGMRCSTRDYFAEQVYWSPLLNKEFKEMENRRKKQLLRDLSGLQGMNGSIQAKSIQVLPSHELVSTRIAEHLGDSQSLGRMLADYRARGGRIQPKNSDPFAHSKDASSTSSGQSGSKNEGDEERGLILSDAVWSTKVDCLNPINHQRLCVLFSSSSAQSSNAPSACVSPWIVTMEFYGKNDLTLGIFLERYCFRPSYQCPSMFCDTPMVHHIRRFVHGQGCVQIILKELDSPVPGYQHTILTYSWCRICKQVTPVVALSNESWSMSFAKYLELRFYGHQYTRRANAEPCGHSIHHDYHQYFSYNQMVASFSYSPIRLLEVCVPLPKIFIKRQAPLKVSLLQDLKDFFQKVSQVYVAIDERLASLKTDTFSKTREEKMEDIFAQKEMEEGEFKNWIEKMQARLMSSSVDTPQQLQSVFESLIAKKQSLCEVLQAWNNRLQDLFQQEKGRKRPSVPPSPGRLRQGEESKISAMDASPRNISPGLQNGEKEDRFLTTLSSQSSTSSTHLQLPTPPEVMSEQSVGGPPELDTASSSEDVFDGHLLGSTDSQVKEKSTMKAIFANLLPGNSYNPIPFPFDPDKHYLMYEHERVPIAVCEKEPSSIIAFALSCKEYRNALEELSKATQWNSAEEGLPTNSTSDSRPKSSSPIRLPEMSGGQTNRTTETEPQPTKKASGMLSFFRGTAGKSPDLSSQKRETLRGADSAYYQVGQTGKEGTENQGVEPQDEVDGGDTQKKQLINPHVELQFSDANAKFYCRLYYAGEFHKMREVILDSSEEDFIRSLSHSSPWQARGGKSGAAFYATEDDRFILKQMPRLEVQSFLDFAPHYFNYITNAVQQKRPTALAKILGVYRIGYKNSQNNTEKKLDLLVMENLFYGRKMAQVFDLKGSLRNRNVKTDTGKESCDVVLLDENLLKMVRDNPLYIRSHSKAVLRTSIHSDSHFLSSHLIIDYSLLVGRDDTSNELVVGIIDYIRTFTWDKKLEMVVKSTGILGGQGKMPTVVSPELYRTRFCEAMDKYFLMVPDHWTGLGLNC

| Structure (SMILES) | DC50 [nM] |
| --- | --- |
| Cc1cccc(/C=N/Nc2cc(N3CCOCC3)nc(OCCc3ccc(NC(=O)CNC(=O)COc4cc(-c5scnc5C)ccc4CNC(=O)[C@@H]4C[C@@H](O)CN4C(=O)[C@@H](NC(=O)C4(F)CC4)C(C)(C)C)cc3)n2)c1 [Example 54, (2S,4R)-1-((S)-2-(1-fluorocyclopropane-1-carboxamido)-3,3-dimethylbutanoyl)-4-hydroxy-N-(2-(2-((2-((4-(2-((4-(2-((E)-3-methylbenzylidene)hydrazino)-6-morpholinopyrimidin-2-yl)oxy)ethyl)phenyl)amino)-2-oxoethyl)amino)-2-oxoethoxy)-4-(4-methylthiazol-5-yl)benzyl)pyrrolidine-2-carboxamide] | 1 to 100 |
| Cc1cccc(/C=N/Nc2cc(N3CCOCC3)nc(OCCc3ccc(NC(=O)CCCNC(=O)COc4cc(-c5scnc5C)ccc4CNC(=O)[C@@H]4C[C@@H](O)CN4C(=O)[C@@H](NC(=O)C4(F)CC4)C(C)(C)C)cc3)n2)c1 [Example 55, (2S,4R)-1-((S)-2-(1-fluorocyclopropane-1-carboxamido)-3,3-dimethylbutanoyl)-4-hydroxy-N-(2-(2-((4-((4-(2-((4-(2-((E)-3-methylbenzylidene)hydrazino)-6-morpholinopyrimidin-2-yl)oxy)ethyl)phenyl)amino)-4-oxobutyl)amino)-2-oxoethoxy)-4-(4-methylthiazol-5-yl)benzyl)pyrrolidine-2-carboxamide] | 1 to 100 |
| Cc1cccc(/C=N/Nc2cc(N3CCOCC3)nc(OCCc3ccc(NC(=O)CSC(C)(C)[C@H](NC(=O)C4(F)CC4)C(=O)N4C[C@H](O)C[C@H]4C(=O)NCc4ccc(-c5scnc5C)cc4)cc3)n2)c1 [Example 57, (2S,4R)-1-((R)-2-(1-fluorocyclopropane-1-carboxamido)-3-methyl-3-((2-((4-(2-((4-(2-((E)-3-methylbenzylidene)hydrazino)-6-morpholinopyrimidin-2-yl)oxy)ethyl)phenyl)amino)-2-oxoethyl)thio)butanoyl)-4-hydroxy-N-(4-(4-methylthiazol-5-yl)benzyl)pyrrolidine-2-carboxamide] | 1 to 100 |
| Cc1cccc(/C=N/Nc2cc(N3CCOCC3)nc(OCCc3ccc(NC(=O)CNC(=O)CSC(C)(C)[C@H](NC(=O)C4(F)CC4)C(=O)N4C[C@H](O)C[C@H]4C(=O)NCc4ccc(-c5scnc5C)cc4)cc3)n2)c1 [Example 58, (2S,4R)-1-((R)-2-(1-fluorocyclopropane-1-carboxamido)-3-methyl-3-((2-((2-((4-(2-((4-(2-((E)-3-methylbenzylidene)hydrazino)-6-morpholinopyrimidin-2-yl)oxy)ethyl)phenyl)amino)-2-oxoethyl)amino)-2-oxoethyl)thio)butanoyl)-4-hydroxy-N-(4-(4-methylthiazol-5-yl)benzyl)pyrrolidine-2-carboxamide] | 100 to 10000 |
| Cc1cccc(/C=N/Nc2cc(N3CCOCC3)nc(OCCc3ccc(NC(=O)CCCNC(=O)CSC(C)(C)[C@H](NC(=O)C4(F)CC4)C(=O)N4C[C@H](O)C[C@H]4C(=O)NCc4ccc(-c5scnc5C)cc4)cc3)n2)c1 [Example 59, (2S,4R)-1-((R)-2-(1-fluorocyclopropane-1-carboxamido)-3-methyl-3-((2-((4-((4-(2-((4-(2-((E)-3-methylbenzylidene)hydrazino)-6-morpholinopyrimidin-2-yl)oxy)ethyl)phenyl)amino)-4-oxobutyl)amino)-2-oxoethyl)thio)butanoyl)-4-hydroxy-N-(4-(4-methylthiazol-5-yl)benzyl)pyrrolidine-2-carboxamide] | 100 to 10000 |
| Cc1cccc(/C=N/Nc2cc(N3CCOCC3)nc(OCCc3ccc(NC(=O)CCCCCNC(=O)CSC(C)(C)[C@H](NC(=O)C4(F)CC4)C(=O)N4C[C@H](O)C[C@H]4C(=O)NCc4ccc(-c5scnc5C)cc4)cc3)n2)c1 [Example 60, (2S,4R)-1-((R)-2-(1-fluorocyclopropane-1-carboxamido)-3-methyl-3-((2-((6-((4-(2-((4-(2-((E)-3-methylbenzylidene)hydrazino)-6-morpholinopyrimidin-2-yl)oxy)ethyl)phenyl)amino)-6-oxohexyl)amino)-2-oxoethyl)thio)butanoyl)-4-hydroxy-N-(4-(4-methylthiazol-5-yl)benzyl)pyrrolidine-2-carboxamide] | 100 to 10000 |
| Cc1cccc(/C=N/Nc2cc(N3CCOCC3)nc(OCCNC(=O)CCC(=O)N[C@H](C(=O)N3C[C@H](O)C[C@H]3C(=O)NCc3ccc(-c4scnc4C)cc3)C(C)(C)C)n2)c1 [Example 61, N^1—((S)-1-((2S,4R)-4-hydroxy-2-((4-(4-methylthiazol-5-yl)benzyl)carbamoyl)pyrrolidine-1-yl)-3,3-dimethyl-1-oxobutan-2-yl)-N^4-(2-((4-(2-((E)-3-methylbenzylidene) hydrazino)-6-morpholinopyrimidin-2-yl)oxy)ethyl)succinimide] | 100 to 10000 |
| Cc1cccc(/C=N/Nc2cc(N3CCOCC3)nc(OCCNC(=O)CCCCC(=O)N[C@H](C(=O)N3C[C@H](O)C[C@H]3C(=O)NCc3ccc(-c4scnc4C)cc3)C(C)(C)C)n2)c1 [Example 62, N^1—((S)-1-((2S,4R)-4-hydroxy-2-((4-(4-methylthiazol-5-yl)benzyl)carbamoyl)pyrrolidine-1-yl)-3,3-dimethyl-1-oxobutan-2-yl)-N^6-(2-((4-(2-((E)-3-methylbenzylidene) hydrazino)-6-morpholinopyrimidin-2-yl)oxy)ethyl)adipamide] | 100 to 10000 |
| Cc1cccc(/C=N/Nc2cc(N3CCOCC3)nc(OCCNC(=O)CCCCCCC(=O)N[C@H](C(=O)N3C[C@H](O)C[C@H]3C(=O)NCc3ccc(-c4scnc4C)cc3)C(C)(C)C)n2)c1 [Example 63, N^1—((S)-1-((2S,4R)-4-hydroxy-2-((4-(4-methylthiazol-5-yl)benzyl)carbamoyl)pyrrolidine-1-yl)-3,3-dimethyl-1-oxobutan-2-yl)-N-(2-((4-(2-((E)-3-methylbenzylidene) hydrazino)-6-morpholinopyrimidin-2-yl)oxy)ethyl)octanediamide] | 100 to 10000 |
| Cc1cccc(/C=N/Nc2cc(N3CCOCC3)nc(OCCNC(=O)CCCCCCCCC(=O)N[C@H](C(=O)N3C[C@H](O)C[C@H]3C(=O)NCc3ccc(-c4scnc4C)cc3)C(C)(C)C)n2)c1 [Example 64, N^1—((S)-1-((2S,4R)-4-hydroxy-2-((4-(4-methylthiazol-5-yl)benzyl)carbamoyl)pyrrolidine-1-yl)-3,3-dimethyl-1-oxobutan-2-yl)-N^10-(2-((4-(2-((E)-3-methylbenzylidene) hydrazino)-6-morpholinopyrimidin-2-yl)oxy)ethyl)decanediamide] | 100 to 10000 |
| Cc1cccc(-c2ccn(-c3cc(N4CCOCC4)nc(OCCc4ccc(NC(=O)CNC(=O)CC[C@H](NC(=O)[C@@H]5C[C@@H](O)CN5C(=O)[C@@H](NC(=O)C5(F)CC5)C(C)(C)C)c5ccc(-c6scnc6C)cc5)cc4)n3)n2)c1 [Example 65, (2S,4R)-1-((S)-2-(1-fluorocyclopropane-1-carboxamido)-3,3-dimethylbutanoyl)-4-hydroxy-N—((S)-1-(4-(4-methylthiazol-5-yl)phenyl)-4-((2-((4-(2-((4-morpholino-6-(3-(m-tolyl)-1H-pyrazol-1-yl)pyrimidin-2-yl)oxy)ethyl)phenyl)amino)-2-oxoethyl)amino)-4-oxobutyl)pyrrolidine-2-carboxamide] | 1 to 100 |
